In patent publication US20260248799A1, “COMBINATIONS OF RETINALDEHYDE DEHYDROGENASE 1 (RALDH1) INHIBITORS AND IMMUNOSTIMULATORS AND METHODS USING SAME” (The Trustees of the University of Pennsylvania, priority 2023, published 2026):

Assays:
[1] = target: T1, Serotonin (5-Hydroxytryptamine) 5-HT2C (Homo sapiens, UniProt P28335); assay: Safetyscreen: 5-HT2C; assay type: binding; conditions: read-out: % Inh. Serotonin (5-Hydroxytryptamine) 5-HT2C
T1 construct: Eurofins Cereps Panlabs (contract panel)

[2] = target: T2, Transporter, Serotonin (5-Hydroxytryptamine) (SERT) (Homo sapiens, UniProt P31645); assay: Safetyscreen: SERT; assay type: binding; conditions: read-out: % Inh. Transporter, Serotonin (5-Hydroxytryptamine) (SERT)
T2 construct: purchased Eurofins Cereps Panlabs

Glutamate, NMDA, Agonism = assay: Safetyscreen: NMDA, Agonism; assay type: binding, rat; conditions: 10 μM
Neuropeptide Y Y1 = target: T3, Neuropeptide Y Y1 (Homo sapiens, UniProt P25929); assay: Safetyscreen: Neuropeptide Y Y1; assay type: binding; conditions: read-out: % Inh. Neuropeptide Y Y1
T3 construct: Eurofins Cereps Panlabs (contract panel)

Tachykinin NK1 = target: T4, Tachykinin NK1 (Homo sapiens, UniProt P25103); assay: Safetyscreen: Tachykinin NK1; assay type: binding; conditions: read-out: % Inh. Tachykinin NK1
T4 construct: Eurofins Cereps Panlabs (contract panel)

Glucocorticoid = target: T5, Glucocorticoid (Homo sapiens, UniProt P04150); assay: Safetyscreen: Glucocorticoid; assay type: binding; conditions: read-out: % Inh. Glucocorticoid
T5 construct: purchased Eurofins Cereps Panlabs

[3] = Pharmacokinetics IV and PO in CD-1 mice, plasma; assay type: in vivo; conditions: mouse plasma
Source text: The PK studies were done at NIH or a commercial CRO—Pharmacon using their in-house standard protocol. […] For C99, IV and PO, performed at NIH using CD-1 mice; formulation: 20% HPbCD in saline.

[4] = test system: macrophages from primary human monocytes; assay: Numbers of live monocyte-derived macrophages in vitro; assay type: cell-based; conditions: C86 treated TCM or BMS493; three days
Procedure: FIGS. 24A-24E: Raldh1-INH blocks tumor supportive functions of monocytes and macrophages. FIG. 24A: Circulating primary human monocytes were collected from donors and cultured with MCSF (50 ng/mL) to generate macrophages. On day 3 of these cultures, DMSO or RA (100 nmol/L) was added to generate control monocyte-derived macrophages (Control-MoDM) or RA monocyte-derived macrophages (RA-MoDM), respectively. On day 7 of these cultures, macrophages were collected for each well after washing with 1×PBS, mixed with Huh7 cells at approximately 50:50 ratio, and the mix injected into the flanks of NU/J mice. Huh7 tumors cells that were not mixed with any macrophages before flank injection served as an additional control. Tumor volume was measured every 2 days (left graph). 19 days after tumor injection, mice were sacrificed and tumor weight (right graph) was measured. […] Three or more independent experiments were performed with at least three replicates per experimental group. Unpaired t test, two-tailed. […] Tumor growth was monitored daily (left graph). 13 days after tumor cell transplantation, mice were sacrificed and tumor weight measured (right graph). […] Three days later, cells were harvested, counted, and stained with PI for FCS analyses. […] Cell proliferation was measured by counting live cell numbers (y-axis). […] 72 hours later, the cells were washed, counted, and analyzed by FCS. […]

Opiate κ(OP2, KOP) = target: T6, Opiate κ(OP2, KOP) (Homo sapiens, UniProt P41145); assay: Safetyscreen: Opiate κ; assay type: binding; conditions: read-out: % Inh. Opiate κ(OP2, KOP)
T6 construct: Eurofins Cereps Panlabs (contract panel)

Adrenergic β2 = target: T7, Adrenergic β2 (Homo sapiens, UniProt P07550); assay: Safetyscreen: Adrenergic β2; assay type: binding; conditions: read-out: % Inh. Adrenergic β2
T7 construct: Eurofins Cerep Panlabs (contract panel)

Adenosine A1 = target: T8, Adenosine A1 (Homo sapiens, UniProt P30542); assay: Safetyscreen: Adenosine A1; assay type: binding; conditions: read-out: % Inh. Adenosine A1
T8 construct: Eurofins Cerep Panlabs (contract panel)

[5] = IP pharmacokinetics and tissue distribution of C-86 in C57BL/6J mice; assay type: in vivo, mouse; conditions: for AUC(0-inf) / Cmax: male, C57BL/6J, mouse, mice, IP
[6] = intravenous administration, 2 mg/kg

T1 sequence (P28335 33-458): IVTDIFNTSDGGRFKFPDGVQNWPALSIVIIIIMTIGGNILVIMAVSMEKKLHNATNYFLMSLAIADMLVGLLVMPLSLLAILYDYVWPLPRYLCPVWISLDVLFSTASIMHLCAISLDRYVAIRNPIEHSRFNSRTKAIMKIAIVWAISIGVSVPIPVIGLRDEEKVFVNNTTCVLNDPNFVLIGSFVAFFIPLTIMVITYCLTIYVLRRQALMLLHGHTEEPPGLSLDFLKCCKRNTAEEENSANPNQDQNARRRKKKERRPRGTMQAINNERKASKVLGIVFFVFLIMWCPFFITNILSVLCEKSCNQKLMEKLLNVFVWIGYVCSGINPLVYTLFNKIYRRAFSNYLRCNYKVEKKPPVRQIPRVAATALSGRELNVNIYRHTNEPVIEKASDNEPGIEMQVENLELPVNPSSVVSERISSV
T6 sequence (P41145 whole entry): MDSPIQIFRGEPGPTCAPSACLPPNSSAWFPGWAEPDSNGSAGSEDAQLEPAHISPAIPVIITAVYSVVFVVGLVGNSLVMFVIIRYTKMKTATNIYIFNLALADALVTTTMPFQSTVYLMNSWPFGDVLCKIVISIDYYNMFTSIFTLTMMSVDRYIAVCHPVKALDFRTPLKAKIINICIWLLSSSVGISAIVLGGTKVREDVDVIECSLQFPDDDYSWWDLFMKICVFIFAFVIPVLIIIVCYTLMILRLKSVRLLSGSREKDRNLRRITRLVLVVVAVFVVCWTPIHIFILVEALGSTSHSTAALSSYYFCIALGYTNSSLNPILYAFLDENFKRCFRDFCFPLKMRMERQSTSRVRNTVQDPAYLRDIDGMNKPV
T3 sequence (P25929 whole entry): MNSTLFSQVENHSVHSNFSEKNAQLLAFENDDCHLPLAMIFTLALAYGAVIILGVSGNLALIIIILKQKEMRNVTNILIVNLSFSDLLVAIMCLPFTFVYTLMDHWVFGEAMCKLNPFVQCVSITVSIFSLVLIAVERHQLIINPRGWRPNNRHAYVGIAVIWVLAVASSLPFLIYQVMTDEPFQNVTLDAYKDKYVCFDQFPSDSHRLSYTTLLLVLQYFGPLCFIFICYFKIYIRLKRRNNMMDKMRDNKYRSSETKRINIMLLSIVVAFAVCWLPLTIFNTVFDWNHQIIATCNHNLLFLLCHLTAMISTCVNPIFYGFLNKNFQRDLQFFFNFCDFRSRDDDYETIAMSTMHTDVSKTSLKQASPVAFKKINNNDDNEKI
T4 sequence (P25103 whole entry): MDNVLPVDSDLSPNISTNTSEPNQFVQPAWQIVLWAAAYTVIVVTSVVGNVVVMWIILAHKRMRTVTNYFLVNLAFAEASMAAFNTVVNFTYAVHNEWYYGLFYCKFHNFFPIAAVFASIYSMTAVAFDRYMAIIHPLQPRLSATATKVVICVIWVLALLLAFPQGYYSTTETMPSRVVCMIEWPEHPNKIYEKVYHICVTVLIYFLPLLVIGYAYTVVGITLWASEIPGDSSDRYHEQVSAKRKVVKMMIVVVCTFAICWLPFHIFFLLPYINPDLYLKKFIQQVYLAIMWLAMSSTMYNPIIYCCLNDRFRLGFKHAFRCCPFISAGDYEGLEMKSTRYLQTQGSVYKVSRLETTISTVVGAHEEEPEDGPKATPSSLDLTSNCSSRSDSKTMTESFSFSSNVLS
T5 sequence (P04150 whole entry): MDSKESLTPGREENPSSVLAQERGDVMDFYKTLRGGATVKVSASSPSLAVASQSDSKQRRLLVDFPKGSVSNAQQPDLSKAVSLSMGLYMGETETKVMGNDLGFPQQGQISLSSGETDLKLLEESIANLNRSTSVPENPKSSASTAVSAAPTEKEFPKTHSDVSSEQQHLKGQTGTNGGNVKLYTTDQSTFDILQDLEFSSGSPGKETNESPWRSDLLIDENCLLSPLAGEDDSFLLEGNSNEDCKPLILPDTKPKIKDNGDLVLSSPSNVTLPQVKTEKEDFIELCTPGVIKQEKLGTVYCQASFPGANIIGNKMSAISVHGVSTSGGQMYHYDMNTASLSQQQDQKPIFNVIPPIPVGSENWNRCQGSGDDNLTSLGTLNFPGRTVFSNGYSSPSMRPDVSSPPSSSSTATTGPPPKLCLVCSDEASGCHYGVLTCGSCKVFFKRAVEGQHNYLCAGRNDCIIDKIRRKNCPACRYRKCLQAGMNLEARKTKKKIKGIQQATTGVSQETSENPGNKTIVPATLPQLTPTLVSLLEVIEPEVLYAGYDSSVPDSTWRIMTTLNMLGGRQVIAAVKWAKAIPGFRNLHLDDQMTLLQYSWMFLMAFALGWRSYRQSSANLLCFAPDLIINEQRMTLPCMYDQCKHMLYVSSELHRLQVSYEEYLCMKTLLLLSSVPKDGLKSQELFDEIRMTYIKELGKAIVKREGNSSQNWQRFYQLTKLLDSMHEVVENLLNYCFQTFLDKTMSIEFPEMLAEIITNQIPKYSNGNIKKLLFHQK
T7 sequence (P07550 whole entry): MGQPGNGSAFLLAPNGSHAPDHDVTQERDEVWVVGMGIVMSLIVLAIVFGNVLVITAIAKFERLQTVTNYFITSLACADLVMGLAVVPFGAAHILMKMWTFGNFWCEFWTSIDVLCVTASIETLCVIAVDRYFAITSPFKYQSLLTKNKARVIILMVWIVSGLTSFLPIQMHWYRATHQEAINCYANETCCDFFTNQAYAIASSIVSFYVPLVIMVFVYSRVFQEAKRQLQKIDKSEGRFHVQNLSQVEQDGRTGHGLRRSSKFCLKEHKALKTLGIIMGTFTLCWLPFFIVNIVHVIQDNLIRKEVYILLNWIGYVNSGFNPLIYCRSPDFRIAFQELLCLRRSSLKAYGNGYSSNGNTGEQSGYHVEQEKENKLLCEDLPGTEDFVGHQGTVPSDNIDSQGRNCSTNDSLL
T2 sequence (P31645 whole entry): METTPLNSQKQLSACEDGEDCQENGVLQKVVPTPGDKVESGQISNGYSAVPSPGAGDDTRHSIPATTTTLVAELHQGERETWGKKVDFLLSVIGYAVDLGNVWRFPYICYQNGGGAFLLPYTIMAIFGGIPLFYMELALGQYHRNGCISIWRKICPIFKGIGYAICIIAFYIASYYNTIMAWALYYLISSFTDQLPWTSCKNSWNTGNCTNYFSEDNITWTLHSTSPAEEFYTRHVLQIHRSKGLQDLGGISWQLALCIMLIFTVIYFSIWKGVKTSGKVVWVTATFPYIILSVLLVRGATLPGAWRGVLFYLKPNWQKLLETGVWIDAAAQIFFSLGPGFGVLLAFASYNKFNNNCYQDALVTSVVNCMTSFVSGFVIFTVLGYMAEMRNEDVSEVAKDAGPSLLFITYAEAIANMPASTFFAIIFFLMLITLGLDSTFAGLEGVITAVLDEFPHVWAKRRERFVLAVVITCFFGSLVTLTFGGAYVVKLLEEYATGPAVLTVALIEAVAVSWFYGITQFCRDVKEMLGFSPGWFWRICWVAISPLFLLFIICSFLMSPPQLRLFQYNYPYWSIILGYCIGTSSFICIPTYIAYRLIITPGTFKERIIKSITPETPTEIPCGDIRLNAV
T8 sequence (P30542 whole entry): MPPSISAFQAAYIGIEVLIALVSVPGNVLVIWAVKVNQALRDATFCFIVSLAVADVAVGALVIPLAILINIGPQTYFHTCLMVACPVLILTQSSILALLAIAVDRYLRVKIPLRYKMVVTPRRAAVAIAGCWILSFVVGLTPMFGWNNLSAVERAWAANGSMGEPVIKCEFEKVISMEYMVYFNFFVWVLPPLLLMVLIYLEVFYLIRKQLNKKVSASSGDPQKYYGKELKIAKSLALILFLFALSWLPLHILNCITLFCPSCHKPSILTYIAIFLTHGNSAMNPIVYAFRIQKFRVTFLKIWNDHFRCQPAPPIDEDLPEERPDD

## CS(=O)(=O)N1CCN(C(=O)c2cnc3ccc(F)cc3c2N2CCC(C#N)(c3ccccc3)CC2)CC1 [Compound C-86, 1-(6-fluoro-3-(4-(methylsulfonyl)piperazine-1-carbonyl)quinolin-4-yl)-4-phenylpiperidine-4-carbonitrile]
[1]
  inhibition at 10 µM: 22%
[2]
  inhibition at 10 µM: 17%
Glutamate, NMDA, Agonism
  % Inh. Glutamate, NMDA, Agonism: 2%
Neuropeptide Y Y1
  inhibition at 10 µM: 11%
Tachykinin NK1
  inhibition at 10 µM: 37%
Glucocorticoid
  inhibition at 10 µM: 9%
[3]; [6]
  AUC0-∞: 1141 ng·h/mL
  Cmax: 2350 ng/mL
  Vss: 0.7 L/kg
[3]; oral administration, 10 mg/kg
  AUC0-∞: 2518 ng·h/mL
  Cmax: 1234 ng/mL
  F: 44%
[4]
  RA and tumor-CM induced increase in macrophage numbers: reversed
Opiate κ(OP2, KOP)
  inhibition at 10 µM: 41%
Adrenergic β2
  inhibition at 10 µM: 11%
Adenosine A1
  inhibition at 10 µM: 4%
[5]; delivered i.p.
  bio-distribution in various tissues: good bio-distribution
[5]; 10 mg/kg, adipose (mesenteric)
  AUC(0-inf): 121000 ng·h/mL
  Cmax: 45200 ng/mL
[5]; 10 mg/kg, brain
  AUC(0-inf): 753 ng·h/mL
  Cmax: 362 ng/mL
[5]; 10 mg/kg, liver
  AUC(0-inf): 32900 ng·h/mL
  Cmax: 27600 ng/mL
[5]; 10 mg/kg, pancreas
  AUC(0-inf): 35000 ng·h/mL
  Cmax: 34400 ng/mL
[5]; 10 mg/kg, plasma
  AUC(0-inf): 3720 ng·h/mL
  Cmax: 2930 ng/mL
[5]; 30 mg/kg, adipose (mesenteric)
  AUC(0-inf): 832000 ng·h/mL
  Cmax: 140000 ng/mL
[5]; 30 mg/kg, brain
  AUC(0-inf): 4520 ng·h/mL
  Cmax: 1150 ng/mL
[5]; 30 mg/kg, liver
  AUC(0-inf): 174000 ng·h/mL
  Cmax: 70500 ng/mL
[5]; 30 mg/kg, pancreas
  AUC(0-inf): 276000 ng·h/mL
  Cmax: 149000 ng/mL
[5]; 30 mg/kg, plasma
  AUC(0-inf): 28000 ng·h/mL
  Cmax: 11600 ng/mL
